Data set [1] in a line: Fluorescence spectra / optical properties. In kind it is physicochemical. Details: key to Brightness: ++++: very bright; +++: bright; ++: moderate brightness; +: weak. To be noted: for Brightness / λem (emission wavelength) / λex (excitation wavelength): Table 4. How it is done: Computations. In vitro fluorescence quenching studies were carried out at peak excitation and emission wavelengths. Microliter aliquots of the sodium salt of the quenching anion (1 M) were added to indicator solution in 5 mM sodium phosphate (pH 7.2, unless indicated otherwise). Fluorescence intensities in the absence (Fo) and presence (F) of quencher anion ([Q]) were measured to give the Stem-Volmer constant (Kq) as defined by:
Fluorescence spectra reveal that LZQ and LMQ have broad excitation and emission peaks with maxima at 424 and 528 nm, respectively. The molar extinction coefficient of LZQ was 11,100 M^-1 cm^-1 at 424 nm and the quantum yield in the absence of I^- was 0.53. Stem-Volmer plots for quenching of LZQ and LMQ by I^- and Cl^-, with data for SPQ shown for comparison, were generated. In water (or saline), LZQ fluorescence was quenched by I^- with a Stem-Volmer constant of 60 M^-1. LZQ fluorescence was not quenched (Stem-Volmer constant <1 M^-1) by Cl^-, NO3^-, phosphate, acetate, Na^+ and K^+. LZQ fluorescence and I^- sensitivity were not affected by pH changes in the range 4.5-8.

Data set [2] can be described thus: In vitro fluorescence quenching by I^- (Stern-Volmer). In kind it is physicochemical. Conditions: Table 4. How it is done:
Computations. In vitro fluorescence quenching studies were carried out at peak excitation and emission wavelengths. Microliter aliquots of the sodium salt of the quenching anion (1 M) were added to indicator solution in 5 mM sodium phosphate (pH 7.2, unless indicated otherwise). Fluorescence intensities in the absence (Fo) and presence (F) of quencher anion ([Q]) were measured to give the Stem-Volmer constant (Kq) as defined by: Fo /F=1+Kq [Q].

Data set [3] relates to CFTR. Conditions: cited from earlier work; for correction of CF phenotype (chemical chaperones): Swiss 3T3, Brown et al., 1996.
For data set [4], the system named is cells. As to the kind of experiment: Photobleaching in cells. To be noted: Table 4. In kind it is cell-based. On the procedure:
(§1) Fluorescence microscopy. Fluorescence microscopy measurements were performed as described previously (Chao et al., 1989). Briefly, coverglasses were mounted in a 0.5 ml perfusion chamber in which the cell-free glass surface made contact with an oil immersion objective (Nikon ×40 magnification, numerical aperture[NA] 1.3). Cell fluorescence was excited at 365±10 nm (SPQ) or 420 nm±10 nm (LZQ and LMQ). Emitted fluorescence was detected by a photomultiplier in a Nikon inverted epifluorescence microscope using a 410 nm dichroic mirror and 420 nm barrier filter (SPQ) or a 455 nm dichroic mirror and 500 nm barrier filter (LZQ). For cells colabeled with SPQ and LZQ, SPQ fluorescence was excited at 365±10 nm and detected using a 410 nm dichroic mirror and 455±30 nm interference filter. Confocal fluorescence micrographs were obtained using a Nipkow wheel confocal microscope and cooled CCD camera detector using a ×60 oil immersion objective (Nikon, NA 1.4). LZQ-labeled cells were viewed using a fluorescein filter set (excitation 480±15 nm, emission 520±20 nm).
(§2) A time course of LZQ fluorescence during perfusion with physiological saline at 23° C. was generated. A small group of 20-30 cells was illuminated continuously and fluorescence was detected by a photomultiplier using an ×40, 1.3 NA objective. Cellular fluorescence decreased slowly at a rate of 2.5% per hour. To determine the relative contributions of indicator leakage vs. photobleaching to the slow decline in fluorescence, the perfused cells were illuminated intermittently. […] Background fluorescence (in non-labeled cells) was generally <5% of the fluorescence of LZQ-labeled cells.

Data set [5] concerns cells. As to the kind of experiment: Toxicity in assays of cell growth. In kind it is cell-based. Conditions: 2 mM in culture medium for 72 h. How it is done: (§3) LZQ and LMQ were loaded into cells efficiently by hypotonic shock or passive incubation. […] As was found for SPQ, LZQ and LMQ were non-toxic to cells in assays of cell growth (2 mM in culture medium for 72 h).
Data set [6] concerns cells. As to the kind of experiment: Indicator leakage / cytoplasmic retention. In kind it is cell-based. Conditions: Table 4. On the procedure: as §1, §2
Data set [7] concerns cells. Briefly: Cell loading and intracellular distribution (fluorescence/confocal microscopy). In kind it is cell-based. Conditions: for Cellular properties: staining/distribution: Table 4. How it is done: as §1
Transport measurements. Cells were labeled with LZQ or SPQ by hypotonic shock (loading buffer/water 1:1 containing 2 mM LZQ or 7.5 mM SPQ) for 5 min at room temperature or by overnight incubation with indicators in the cell culture medium. Extracellular indicator was removed by washing just prior to measurements. For fluorescence microscopy, glass coverslips were then mounted in a perfusion chamber (flow ~2 ml/min) in which solutions were exchanged using a 4-way valve. For microplate reader measurements, cells in 96-well plates were bathed in […] of the `1st buffer` (see Table 3) and […] of the Cl^- -containing, I^- -free solution was injected into the well to drive Cl^- /I^- exchange (protocol 1). For stimulation of CFTR using protocol 2, […] of a 1:8 mixture of the 1st buffer and the 2nd buffer containing […] forskolin, 2 mM CPT-cAMP and […] IBMX was added.
as §3

The test system of data set [8] is cells. Briefly: Response of intracellular fluorescence to osmotically-induced changes in cell volume. In kind it is cell-based. On the procedure: as §1
The similar LZQ lifetime in cells and water predicts that LZQ fluorescence should be relatively insensitive to cell volume in the absence of I^-. […] When cells were exposed to hypoosmotic medium (225 mOsm), SPQ fluorescence increased by 15±2%, whereas LZQ fluorescence increased by only 4±1%.

For data set [9], the system named is CFTR-expressing fibroblasts and T84 cells. As to the kind of experiment: Cl^-/I^- exchange by LZQ fluorescence, CFTR-expressing cells. In kind it is cell-based. Conditions: solution Cl^- replaced by I^-. On the procedure:
as §1, with “LZQ-labeled cells were viewed using a fluorescein filter set (excitation 480±15 nm, emission 520±20 nm).” left out
(§4) Transport measurements. […] For fluorescence microscopy, glass coverslips were then mounted in a perfusion chamber (flow ~2 ml/min) in which solutions were exchanged using a 4-way valve. For microplate reader measurements, cells in 96-well plates were bathed in […] of the `1st buffer` (see Table 3) and […] of the Cl^- -containing, I^- -free solution was injected into the well to drive Cl^- /I^- exchange (protocol 1). […]

Data set [10] concerns control fibroblasts. Briefly: Cl^-/I^- exchange by LZQ fluorescence, control cells. In kind it is cell-based. To be noted: solution Cl^- replaced by I^-. On the procedure:
as §1, with “LZQ-labeled cells were viewed using a fluorescein filter set (excitation 480±15 nm, emission 520±20 nm).” left out
as §4

Take `C[n+]1c(-c2ccccc2)ccc2cc3ccc(-c4ccccc4)nc3cc21` [Compound VII, 1-methyl-2,7-diphenylpyrido-[3,2,g]quinolinium]: in data set [1], the Brightness entry is listed as “+++”, the “λem (emission wavelength)” value was 515 nm and the “λex (excitation wavelength)” value amounted to 405 nm. Also, the “Ksv (I^-), Stern Volmer quenching constant” value (from here on “Ksv (I^-)”) in data set [2] was 46 M⁻¹.

As for `[2H]O[2H]` [D2 O], the “correction of CF phenotype (chemical chaperones)” value (“correction of CF phenotype” below) in data set [3] was “corrected the CF phenotype”.

Consider `NCCCNCCCCNC(=O)C(O)NC(=O)CCCCCCN=C(N)N` (centres unmarked) [Deoxyspergualin], for which the “restoration of Cl transport” value in [3] (C127-CFTR, JME/CF15, IBE-1, Jiang et al., 1998) is on record as “partially restored”.

For the molecule `CC(C)Cn1c(=O)n(C)c(=O)c2[nH]cnc21` [IBMX, 3-isobutyl-1-methylxanthine], the “effect of increased [IBMX] on ΔF508 response” value in data set [3] (L cells, Yang et al., 1993) is “improved”.

As to `N=c1ccc2c(-c3ccccc3C(=O)O)c3ccc(N)cc3oc-2c1` [III, rhodamine-110, reference compound], in data set [1], the Brightness entry is “++++”, the “λem (emission wavelength)” value amounted to 520 nm and the “λex (excitation wavelength)” value amounted to 496 nm. Further, the “Ksv (I^-)” value in data set [2] was 40 M⁻¹.

For the molecule `Nc1ncnc2c1nc([O-])c1cccc[n+]12` [II], in data set [4], the “Cellular properties: photobleaching” value is reported as “slow photobleaching”. Moreover, the “toxicity to cells (cell growth)” value in data set [5] is listed as “non-toxic”. Further, in [1], the emission maximum was 528 nm, the excitation maximum is 424 nm, the Brightness result is on record as “+++” and the “λem (emission wavelength)” value amounted to 530 nm. The “λex (excitation wavelength)” value in data set [1] stood at 424 nm. Moreover, the “Cellular properties: leakage rate” value in data set [6] is reported as “moderate”. For the same molecule, in [7], the “Cellular properties: staining/distribution” value was “staining uniform”. The loading into cells result in data set [7] (hypotonic shock or passive incubation) is recorded as “efficiently”. In addition, the “Ksv (I^-)” value in [2] came out at 70 M⁻¹.

Turning to `Cc1cc2cc3cc(C)c(N)cc3[n+](C)c2cc1N` [IX, 10-methyl acridinium yellow], the “Cellular properties: photobleaching” value in data set [4] is recorded as “very rapid”. In data set [1], the Brightness result is on record as “++++”, the “λem (emission wavelength)” value was determined as 520 nm and the “λex (excitation wavelength)” value amounted to 440 nm. The “Ksv (I^-)” value in data set [2] amounted to 90 M⁻¹.

For `COc1ccc2c(ccc[n+]2CCCS(=O)(=O)[O-])c1` [SPQ, 6-methoxy-N-[3-sulfopropyl]quinolinium, reference compound], the “toxicity to cells (cell growth)” value in data set [5] is reported as “non-toxic”. In addition, the “fluorescence increase upon exposure to hypoosmotic medium” value in [8] (225 mOsm) came to 15±2%. The “fluorescence decrease upon exposure to hyperosmotic medium” value in data set [8] (600 mOsm, absence of Cl^-, S.E., n=3) stood at 30±2%.

As to `C[N+](C)(C)[O-]` [TMAO], in data set [3], the “correction of CF phenotype” value was “corrected the CF phenotype”.

In the case of `O=c1ccc2nc3ccc(O)cc3oc-2c1` [VIII, resorufin, reference compound], in data set [1], the Brightness result is recorded as “+++”, the “λem (emission wavelength)” value was 585 nm and the “λex (excitation wavelength)” value is 571 nm. In addition, in data set [2], the “Ksv (I^-)” value stood at 76 M⁻¹.

With `CN(C)c1ccc2cc3ccc(N(C)C)cc3[n+](C)c2c1` [X, 10-methyl acridinium orange], the “Cellular properties: photobleaching” value in data set [4] is recorded as “very rapid”. Further, in [1], the Brightness result is reported as “++++”, the “λem (emission wavelength)” value worked out at 550 nm and the “λex (excitation wavelength)” value came out at 440 nm. For the same molecule, in data set [2], the “Ksv (I^-)” value stood at 30 M⁻¹.

Regarding `Nc1c2ccccc2[n+](CCCS(=O)(=O)[O-])c2ccccc12` [XII, 9-amino-10-(3-sulfopropys) acridinium], in data set [4], the “Cellular properties: photobleaching” value is “rapid”. In addition, in data set [1], the Brightness entry is listed as “+++”, the “λem (emission wavelength)” value is recorded as 457 nm and the “λex (excitation wavelength)” value was determined as 422 nm. In data set [7], the “Cellular properties: staining/distribution” value is given as “nuclear staining”. In addition, the “Ksv (I^-)” value in data set [2] is 253 M⁻¹.

On to `Nc1ccc2nc3ccc(N)cc3[n+](-c3ccccc3)c2c1` [XIII, phenosafranine, reference compound], for which, in data set [1], the Brightness result is “++”, the “λem (emission wavelength)” value turned out to be 586 nm and the “λex (excitation wavelength)” value was 520 nm. For the same molecule, the “Ksv (I^-)” value in data set [2] was 33 M⁻¹.

Consider `C=C[C@@]1(C)CC(=O)[C@]2(O)[C@@]3(C)[C@@H](O)CCC(C)(C)[C@@H]3[C@H](O)[C@H](OC(C)=O)[C@@]2(C)O1` [forskolin], for which the “forskolin-stimulated change in LZQ fluorescence” value in data set [9] is listed as “rapid decrease in LZQ fluorescence”. Moreover, the “forskolin-stimulated decrease in LZQ fluorescence, control” value in data set [10] is on record as “not in control fibroblasts”.

`OCC(O)CO` [glycerol]: the “correction of CF phenotype” value in data set [3] is given as “corrected the CF phenotype”.

As for `CCCC(=O)[O-].[Na+]` [sodium butyrate], the “Cl transport, overexpression of ΔF508” value in data set [3] (CFPAC-1, JME/CF15, 1° culture, Cheng et al., 1995) is reported as “resulted in detectable Cl”.

For the molecule CFTR protein: purified CFTR protein, the “Cl transport after transfer of purified protein” value in [3] (CHO-CFTR, FRT-CFTR, LLCPK1, Marshall et al., 1994) is recorded as “induced Cl transport”.

“rhodamine green [IV, reference compound]”: in data set [1], the Brightness entry was “++++”, the “λem (emission wavelength)” value is 530 nm and the “λex (excitation wavelength)” value turned out to be 505 nm. In addition, the “Ksv (I^-)” value in data set [2] was 30 M⁻¹.

Values taken from patent US6201116A, “Halide indicators” (The Regents of the University of California, priority 1999, dated 2001).
